Converted amounts (≈) assume the structure as drawn. Like-named read-outs stand apart in the source and are kept apart here.
Assays:
[1] = tested on: Mtb H37Ra ITM-M006710 (ATCC 9431); assay: Microplate Alamar Blue Assay (MABA) microdilution, Mtb H37Ra; format: cell-based, Mycobacterium tuberculosis; settings: for MIC: Mycobacterium tuberculosis
[2] = tested on: M. smegmatis DSM 43465 (ATCC 607); assay: Microplate Alamar Blue Assay (MABA) microdilution, M. smegmatis; format: cell-based, Mycobacterium smegmatis
[3] = tested on: Mycobacterium aurum DSM 43999 (ATCC 23366); assay: Microplate Alamar Blue Assay (MABA) microdilution, M. aurum; format: cell-based
[4] = tested on: HepG2 cell line; assay: HepG2 cytotoxicity, CellTiter 96 (MTS) assay; format: cell-based, human; settings: for IC50: Homo sapiens, read-out: HepG2 IC50
[5] = tested on: Mycobacterium tuberculosis H37Rv CNCTC My 331/88 (ATCC 27294); assay: Antimycobacterial pre-screening, microdilution broth, Mtb H37Rv; format: cell-based; settings: Middlebrook 7H9 broth of declared pH 6.6
[6] = tested on: M. kansasii CNCTC My 235/80 (ATCC 12478); assay: Antimycobacterial pre-screening, microdilution broth, M. kansasii; format: cell-based; settings: Mycobacterium kansasii, ATCC12478; Middlebrook 7H9 broth of declared pH 6.6
[7] = tested on: M. avium ssp. avium CNCTC My 80/72 (ATCC 15769); assay: Antimycobacterial pre-screening, microdilution broth, M. avium; format: cell-based; settings: Mycobacterium avium, ATCC15769; Middlebrook 7H9 broth of declared pH 6.6
[8] = tested on: Staphylococcus epidermidis CCM 4418 (ATCC 12228); assay: Antibacterial microdilution broth method, SE; format: cell-based; settings: 24 h, read-out: MIC SE
[9] = tested on: Candida albicans CCM 8320 (ATCC 24433); assay: Antifungal microdilution broth method, CA; format: cell-based; settings: 24 h, read-out: MIC CA
[10] = tested on: Candida krusei CCM 8271 (ATCC 6258); assay: Antifungal microdilution broth method, CK; format: cell-based; settings: Pichia kudriavzevii, 24 h, read-out: MIC CK
[11] = tested on: Candida parapsilosis CCM 8260 (ATCC 22019); assay: Antifungal microdilution broth method, CP; format: cell-based; settings: Lodderomyces parapsilosis, 24 h, read-out: MIC CP
[12] = tested on: Candida tropicalis CCM 8264 (ATCC 750); assay: Antifungal microdilution broth method, CT; format: cell-based; settings: 24 h, read-out: MIC CT
[13] = tested on: Aspergillus fumigatus ATCC 204305; assay: Antifungal microdilution broth method, AF; format: cell-based; settings: ATCC204305, 48 h, read-out: MIC AF
[14] = tested on: Aspergillus flavus CCM 8363; assay: Antifungal microdilution broth method, AFla; format: cell-based; settings: CCM8363, read after 48 h (filamentous fungi), read-out: MIC AFla
[15] = tested on: Lichtheimia corymbifera CCM 8077; assay: Antifungal microdilution broth method, LC; format: cell-based; settings: CCM8077, 48 h, read-out: MIC LC
[16] = tested on: Trichophyton interdigitale CCM 8377 (ATCC 9533); assay: Antifungal microdilution broth method, TI; format: cell-based; settings: 48 h, read-out: MIC TI
[17] = tested on: Klebsiella pneumoniae CCM 4415 (ATCC 10031); assay: Antibacterial microdilution broth method, KP; settings: read after 24 h of incubation
[18] = Solubility in the cultivation medium of the antibacterial and antifungal screening; settings: for solubility in the cultivation medium: antibacterial testing medium; for solubility in the medium: antifungal testing medium
[19] = tested on: some G- bacteria; assay: Antibacterial microdilution broth method, strains not given; format: cell-based; settings: read-out: MIC against some G- bacteria
[20] = tested on: Mycobacterium tuberculosis H37Rv CNCTC My 331/88 (ATCC 27294); design: method as in doi:10.3184/030823407×200001; settings: study by Pinheiro et al. ref 32; cited from earlier work
[21] = tested on: HepG2 cell line; design: method as in PMID 23357778; settings: converted to µM based on the literature value 1184.3 ± 120.2 µg/mL ref 62; cited from earlier work
[22] = pH 6.6, read-out: MIC Mtb H37Ra
[23] = pH 6, Table 4, read-out: Mtb pH 6 MIC
[24] = pH 6, calculated from µg/mL, read-out: MIC Mtb H37Ra
[25] = Mycolicibacterium smegmatis, pH 6, read-out: MIC M. smegmatis µg/mL
[26] = Mycolicibacterium smegmatis, pH 6.6, read-out: MIC M. smegmatis
[27] = Mycolicibacterium aurum, pH 6, read-out: MIC M. aurum µg/mL
[28] = Mycolicibacterium aurum, pH 6.6, read-out: MIC M. aurum
[29] = HepG2, 24 h incubation, CellTiter 96
[30] = Mycolicibacterium smegmatis, pH 6; read-out: MIC M. smegmatis
[31] = Mycolicibacterium aurum, pH 6; read-out: MIC M. aurum
[32] = Mycolicibacterium smegmatis, pH 6.6; read-out: MIC M. smegmatis
[33] = Mycolicibacterium aurum, pH 6.6; read-out: MIC M. aurum

Row | Structure (SMILES) | MIC ([1]; pH 6) [µg/mL] | MIC ([1]; pH 6, read-out: MIC Mtb H37Ra) [µg/mL] | MIC [1, 22] [µg/mL] | MIC [1, 24] [µM] | MIC [2, 25] [µg/mL] | MIC [2, 26] [µg/mL] | MIC [3, 27] [µg/mL] | MIC [3, 28] [µg/mL] | MIC [5] [µg/mL] | MIC [6] [µg/mL] | MIC [7] [µg/mL] | MIC [8] [µM] | MIC [9] [µM] | MIC [10] [µM] | MIC [11] [µM] | MIC [12] [µM] | MIC [13] [µM] | MIC [14] [µM] | MIC [15] [µM] | MIC [16] [µM] | other results
1 | CCOC(=O)[C@H](CC(C)C)NC(=O)c1cnccn1 (racemic) [PC-DL-Leu-Et, ethyl (pyrazine-2-carbonyl)leucinate] | 15.6 | 15.6 | 250 | 58.9 | ≥ 125 | 250 (≈ 942 µM) | ≥ 125 | 250 (≈ 942 µM) | 100 (≈ 377 µM) | > 100 | > 100 | > 500 | > 500 | > 500 | > 500 | > 500 | > 500 | > 500 | > 500 | > 500 | MIC [1, 23]: 59 µM; IC50 [4, 29]: 788 µM; MIC KP [17]: > 500 µM
2 | COC(=O)C[C@@H](NC(=O)c1cnccn1)C(=O)OC [PC-D-Asp-diMe, dimethyl (pyrazine-2-carbonyl)-D-aspartate] | ≥ 125 | ≥ 125 | ≥ 125 | ≥ 468 |  | ≥ 125 |  | ≥ 125 |  |  |  |  |  |  |  |  |  |  |  |  | MIC [2, 30]: ≥ 125 µg/mL; MIC [3, 31]: ≥ 125 µg/mL; solubility in the cultivation medium [18]: insoluble; solubility in the medium [18]: insoluble
3 | CC[C@@H](C)[C@@H](NC(=O)c1cnccn1)C(=O)OC [PC-D-Ile-Me, methyl (pyrazine-2-carbonyl)-D-isoleucinate] | 250 | 250 | ≥ 500 | 995 |  |  |  |  |  |  |  |  |  |  |  |  |  |  |  |  | MIC [2, 30]: 250 µg/mL (≈ 995 µM); MIC [2, 32]: ≥ 500 µg/mL; MIC [3, 31]: 250 µg/mL (≈ 995 µM); MIC [3, 33]: ≥ 500 µg/mL; solubility in the cultivation medium [18]: insoluble; solubility in the medium [18]: insoluble
4 | O=C(O)CNC(=O)c1cnccn1 [PC-Gly, (pyrazine-2-carbonyl)glycine] | ≥ 125 | ≥ 125 | ≥ 500 | ≥ 690 | ≥ 125 | ≥ 500 | ≥ 125 | ≥ 500 | > 100 | > 100 | > 100 | > 500 | > 500 | 500 (≈ 90.6 µg/mL) | > 500 | > 500 | > 500 | > 500 | > 500 | > 500 | MIC KP [17]: > 500 µM
5 | CCOC(=O)[C@H](C)NC(=O)c1cnccn1 [PC-L-Ala-Et, ethyl (pyrazine-2-carbonyl)-L-alaninate] | 3.91 | 3.91 | ≥ 500 | 17.5 | ≥ 125 | ≥ 500 | ≥ 125 | ≥ 500 |  |  |  | 250 (≈ 55.8 µg/mL) | > 500 | > 500 | > 500 | > 500 | > 500 | > 500 | > 500 | 500 (≈ 112 µg/mL) | times lower MIC of the ethyl ester compared to the free acid ([1]; Mtb H37Ra, pH 6, PC-L-Ala-Et vs PC-L-Ala): at least 64 times; MIC [1, 23]: 18 µM; HepG2 IC50 ([4]; 24 h incubation, CellTiter 96): above the tested range; IC50 [4, 29]: > 1000 µM; MIC [19]: 125 µM (≈ 27.9 µg/mL); MIC KP [17]: > 500 µM
6 | CC[C@H](C)[C@H](NC(=O)c1cnccn1)C(=O)OC [PC-L-Ile-Me, methyl (pyrazine-2-carbonyl)-L-isoleucinate] | 250 | 250 | ≥ 500 | 995 |  |  |  |  |  |  |  |  |  |  |  |  |  |  |  |  | MIC [2, 30]: ≥ 500 µg/mL; MIC [2, 32]: ≥ 500 µg/mL; MIC [3, 31]: ≥ 500 µg/mL; MIC [3, 33]: ≥ 500 µg/mL; solubility in the cultivation medium [18]: insoluble; solubility in the medium [18]: insoluble
7 | COC(=O)[C@H](CC(C)C)NC(=O)c1cnccn1 [PC-L-Leu-Me, methyl (pyrazine-2-carbonyl)-L-leucinate] | ≥ 125 | ≥ 125 | 250 | ≥ 497 | ≥ 125 | 250 (≈ 995 µM) | ≥ 125 | ≥ 500 | 100 (≈ 398 µM) | > 100 | > 100 | 500 (≈ 126 µg/mL) | > 500 | > 500 | > 500 | > 500 | > 500 | > 500 | > 500 | > 500 | MIC KP [17]: > 500 µM
8 | C=C(NC(=O)c1cnccn1)C(=O)OC [PC-MeAcr, methyl 2-(pyrazine-2-carboxamido)acrylate] | 62.5 | 62.5 | 15.6 | 302 | ≥ 125 | 31.2 (≈ 151 µM) | 62.5 (≈ 302 µM) | 62.5 (≈ 302 µM) | 50 (≈ 241 µM) | 100 (≈ 483 µM) | > 100 | > 125 | > 125 | > 125 | > 125 | > 125 | > 125 | > 125 | > 125 | > 125 | MIC ([1]; pH 6, read-out: Mtb pH 6 MIC): 302 µM; IC50 ([4]; HepG2, 24 h): > 500 µM; MIC on Mtb H37Rv [20]: 50 µg/mL (≈ 241 µM)
9 | NC(=O)c1cnccn1 [PZA, pyrazinamide, reference compound] |  | < 3.91 | ≥ 500 | < 31.8 |  |  |  |  |  |  |  |  |  |  |  |  |  |  |  |  | MIC ([1]; pH 6, read-out: Mtb pH 6 MIC): 31.8 µM; MIC [2, 30]: ≥ 500 µg/mL; MIC [2, 32]: ≥ 500 µg/mL; MIC [3, 31]: 250 µg/mL (≈ 2030 µM); MIC [3, 33]: ≥ 500 µg/mL; IC50 [21]: 9620 µM
